Key:
Settings in all cases: 25 µM pACP, 24 h, maintenance medium 1% FBS, ratio of viability to vehicle (PBS), at least three technical repetitions
Caco2 = test: MTT primary screening of anticancer activity, Caco2; type: cell-based, Human
Excerpt: (§1) We successfully chemically synthesized 40 pACPs for the purpose of in vitro or in vivo characterization of their potential anticancer efficacy. In the initial step, we conducted an in vitro primary screen of these 40 pACPs using a panel of 16 different cancer cell lines, including four human CRC lines (HT29, Caco2, HCT116, and […]), as well as 12 other cancer models (Table S4, Supporting Information). We deliberately selected a diverse panel of cell lines to assess the effect of pACPs across various genetic backgrounds. Briefly, the cancer cells were cultured in specific media (details provided in the Experimental Section) and then treated with pACPs at a final concentration of 25 µM. Peptides with minimum effective inhibition concentrations >25 µM were considered non‐ACPs. After exposure to pACPs, the survival rate of the cancer cells was measured using the MTT assay. Remarkably, 39 out of the 40 pACPs (97.5%) induced at least 20% inhibition in at least one cell line (Figure 3a and Table S5, Supporting Information). […] Thus, our method successfully identified pACPs with a very high rate of anticancer effects across various cancer cell lines.
(§2) To evaluate the activity of the 40 potentially effective pACPs, a panel of 16 cancer cell lines was treated, including human CRC cell lines (HT29, Caco‐2, HCT116). Details of the cell lines used, respective media, and culture conditions were presented in Table S1 (Supporting Information). Once the cells reached 60% confluence, it was incubated with each candidate peptide at a concentration of 25 µM pACPs for 24 h. Concurrently, the complete medium was replaced with a maintenance medium containing only 1% FBS. Subsequently, the viability of each cell line using the MTT Cell Proliferation and Cytotoxicity Assay Kit according to the manufacturer's instructions was assessed. […] For the CRC cell line CT26, it was calculated the CC50 value using two peptides (pACP1780 and pACP2283) with relevant data presented in Table S6 (Supporting Information). The calculation was performed using an online tool: https://www.aatbio.com/tools/ic50‐calculator.

SK-BR-3 = test: MTT primary screening of anticancer activity, SK-BR-3; type: cell-based
Excerpt: as §1, §2

LCC = test: MTT primary screening of anticancer activity, LCC; type: cell-based
Excerpt: as §1, §2

EFM192A = test: MTT primary screening of anticancer activity, EFM192A; type: cell-based
Excerpt: as §1, §2

CT26 = test: MTT primary screening of anticancer activity, CT26; type: cell-based, Murine
Excerpt: as §1, §2

MDA-MB-231 = test: MTT primary screening of anticancer activity, MDA-MB-231; type: cell-based
Excerpt: as §1, §2

T47D = test: MTT primary screening of anticancer activity, T47D; type: cell-based
Excerpt: as §1, §2

Hela = test: MTT primary screening of anticancer activity, Hela; type: cell-based, Human
Excerpt: as §1, §2

MDA-MB-468 = test: MTT primary screening of anticancer activity, MDA-MB-468; type: cell-based
Excerpt: as §1, §2

MCF7 = test: MTT primary screening of anticancer activity, MCF7; type: cell-based
Excerpt: as §1, §2

B16 = test: MTT primary screening of anticancer activity, B16; type: cell-based, Mouse
Excerpt: as §1, §2

BT474 = test: MTT primary screening of anticancer activity, BT474; type: cell-based
Excerpt: as §1, §2

HT29 = test: MTT primary screening of anticancer activity, HT29; type: cell-based, Human
Excerpt: as §1, §2

HCT116 = test: MTT primary screening of anticancer activity, HCT116; type: cell-based, Human
Excerpt: as §1, §2

MDA-MB-436 = test: MTT primary screening of anticancer activity, MDA-MB-436; type: cell-based
Excerpt: as §1, §2

MDA-MB-453 = test: MTT primary screening of anticancer activity, MDA-MB-453; type: cell-based
Excerpt: as §1, §2

Sequence | Survival rate of cancer cells in primary screening (Caco2) | Survival rate of cancer cells in primary screening (SK-BR-3) | Survival rate of cancer cells in primary screening (LCC) | Survival rate of cancer cells in primary screening (EFM192A) | Survival rate of cancer cells in primary screening (CT26) | Survival rate of cancer cells in primary screening (MDA-MB-231) | Survival rate of cancer cells in primary screening (T47D) | Survival rate of cancer cells in primary screening (Hela) | Survival rate of cancer cells in primary screening (MDA-MB-468) | Survival rate of cancer cells in primary screening (MCF7) | Survival rate of cancer cells in primary screening (B16) | Survival rate of cancer cells in primary screening (BT474) | Survival rate of cancer cells in primary screening (HT29) | Survival rate of cancer cells in primary screening (HCT116) | Survival rate of cancer cells in primary screening (MDA-MB-436) | Survival rate of cancer cells in primary screening (MDA-MB-453)
RLRPVILCKKRRLAAGRKKVGRQKKRKASAEGKEGRSPKKKKDGCW [pACP1739] | 1.00 | 0.53 | 1.00 | 1.00 | 1.00 | 1.00 | 0.40 | 0.16 | 0.39 | 0.28 | 1.00 | 0.21 | 1.00 | 1.00 | 0.51 | 0.18
KGVRGKICKGKRCKQISNSGCDRQEIQEKQENRYRKEKQNKG [pACP886] | 1.00 | 1.00 | 1.00 | 1.00 | 1.00 | 1.00 | 0.69 | 0.73 | 1.00 | 1.00 | 0.78 | 1.00 | 1.00 | 1.00 | 1.00 | 1.00
NFWLSTLTGHGFCAVVSAARAGS [pACP1292] | 1.00 | 1.00 | 1.00 | 0.40 | 1.00 | 1.00 | 0.76 | 1.00 | 1.00 | 0.79 | 1.00 | 1.00 | 1.00 | 1.00 | 0.74 | 1.00
AAGVSIEIHISLTLFTQVKCVARSQCAAEGAGLRHIKVAALQSCSRRRAH [pACP2] | 1.00 | 1.00 | 1.00 | 1.00 | 1.00 | 1.00 | 0.71 | 1.00 | 1.00 | 1.00 | 1.00 | 1.00 | 1.00 | 1.00 | 1.00 | 1.00
PPSTRIISKVYPFKKHARGGWAIPGMMCSQMVER [pACP1472] | 1.00 | 1.00 | 1.00 | 1.00 | 1.00 | 1.00 | 1.00 | 1.00 | 0.76 | 1.00 | 1.00 | 1.00 | 1.00 | 1.00 | 1.00 | 1.00
LLSDFRQYRTKIVRQMRRQIFRQMKQKAE [pACP1210] | 1.00 | 1.00 | 1.00 | 1.00 | 1.00 | 1.00 | 0.65 | 1.00 | 1.00 | 0.79 | 0.76 | 1.00 | 1.00 | 1.00 | 1.00 | 1.00
RCPCKGNTHRRYSIMFCNFDCASLLKLLCGFFGKC [pACP1621] | 1.00 | 1.00 | 1.00 | 0.79 | 1.00 | 1.00 | 0.72 | 1.00 | 1.00 | 1.00 | 0.79 | 1.00 | 1.00 | 1.00 | 1.00 | 1.00
SCRNGKGISSGDRPGKAKTGISLEIGKCSYRNKGKSAENSSVAVV [pACP1869] | 1.00 | 1.00 | 1.00 | 1.00 | 1.00 | 1.00 | 0.68 | 1.00 | 1.00 | 1.00 | 0.79 | 1.00 | 1.00 | 1.00 | 1.00 | 1.00
HPGCRKAPGCLCTGVIPSAAIPGTGFEIGGAGCFPLALNCNCATLGKV [pACP631] | 1.00 | 1.00 | 1.00 | 1.00 | 1.00 | 1.00 | 0.79 | 1.00 | 1.00 | 1.00 | 0.76 | 1.00 | 1.00 | 1.00 | 1.00 | 1.00

From article PMC10477861, “Efficient Mining of Anticancer Peptides from Gut Metagenome” (Advanced Science, 2023)
